In brackets after ≈: the same amount, converted by molar mass.
Key:
[1] = test system: Candida parapsilosis ATCC 22019; assay: Anticandida activity, broth microdilution; type: cell-based; details: Lodderomyces parapsilosis, ATCC22019; positive control
Method: (§1) The test microorganisms included the following Gram-positive bacteria: Staphylococcus aureus ATCC 25923, Enterococcus faecalis ATCC 29212; Gram-negative bacteria: Escherichia coli ATCC 25922 and Pseudomonas aeruginosa ATCC 27853 and four Candida yeasts: Candida albicans ATCC 90028, C. glabrata ATCC 90030, C. kreusei ATCC 6258 and C. parapsilosis ATCC 22019).
(§2) The MIC values for the antibacterial and anticandidal screening were determined with the broth dilution method (microdilution using 96-well microplates) following the procedure described by Cintia et al. [35]. Briefly, all samples were prepared at a concentration of 10 mg/mL by dissolution of the extracts in 10% DMSO. The final concentrations of the plant samples tested ranged from 40 to 2 × 10^4 µg/mL. The MIC of each sample was defined as the lowest concentration of oil that inhibited either the bacterial or candidal growth, after incubation at 37 °C for 18 to 24 h. The MBC and the MFC were determined by subculture on blood agar at 37 °C for 18 to 24 h. Thymol and gentamicin or thymol and amphotericin B were used as positive controls against the bacterial or candidal strains, respectively. […] All tests were performed in triplicate.

[2] = test system: Candida kreseui ATCC 6258; assay: Anticandida activity, broth microdilution; type: cell-based; details: ATCC6258, positive control
Method: as §2

[3] = test system: Candida albicans ATCC 90028; assay: Anticandida activity, broth microdilution; type: cell-based; details: ATCC90028, positive control
Method: as §1, §2

[4] = test system: Candida glabrata ATCC 90030; assay: Anticandida activity, broth microdilution; type: cell-based; details: Nakaseomyces glabratus, ATCC90030; positive control
Method: as §1, §2

[5] = test system: human chronic myelogenous leukaemia cell line K562; assay: Cytotoxic activity (MTT assay); type: cell-based; details: K562, 72 h
Method: Cytotoxic activity of extracts against the human chronic myelogenous leukaemia cell line K562 was estimated by the 3-(4,5-dimethylthiazol-2-yl)-2,5-diphenyltetrazolium bromide (MTT) assay of Khlifi et al.. The cells were grown in RPMI- 1640 medium supplemented with 10% faetal calf serum (Gibco, Gaithersburg, MD, USA), air and 5% CO2. The resulting blue formazan product can be measured spectrophotometrically. The MTT colorimetric assay was performed in 96-well plates. […] human chronic myelogenous leukaemia K562 cells were seeded in a 96-well plate at a concentration of 10^4 cells/well and incubated at 37 °C overnight in a 5% CO2 enriched atmosphere. Cells in exponential growth phase were incubated at 37 °C for 72 h with each tested compound at concentrations ranging from 3.12 to 400 μg/mL. After that, the medium was removed and cells were treated with MTT solution (100 μL, 0.2 mg/mL in PBS) at 37 °C for 2 h. MTT solution was then discarded and DMSO (500 μL) was added to dissolve insoluble formazan crystals. Optical density was measured at 540 nm. Each extract concentration was tested in triplicate. Doxorubicin was used as positive control.

[6] = test system: Enterococcus faecalis ATCC 29212; assay: Antibacterial activity, broth microdilution; type: cell-based; details: ATCC29212, positive control
Method: as §2

[7] = test system: Pseudomonas aeruginosa ATCC 27853; assay: Antibacterial activity, broth microdilution; type: cell-based; details: ATCC27853, positive control
Method: as §1, §2

[8] = test system: Staphylococcus aureus ATCC 25923; assay: Antibacterial activity, broth microdilution; type: cell-based; details: ATCC25923, positive control
Method: as §2

[9] = test system: Escherichia coli ATCC 25922; assay: Antibacterial activity, broth microdilution; type: cell-based; details: ATCC25922, positive control
Method: as §1, §2

[10] = Antioxidant activity by ABTS assay
Method: ABTS was dissolved in water to a 7 mM concentration and the ABTS radical cation was produced by adding potassium persulfate to a final concentration of 2.45 mM [31]. The radical generation was completed in the dark at room temperature for 12 h. This solution was then diluted with methanol to adjust its absorbance at 734 nm to 0.706 ± 0.009. To determine the scavenging activity, 1 mL of diluted ABTS^+. solution was added to 1 mL of methanolic solutions of extract at different concentrations and the absorbance at 734 nm was measured 10 min after the initial mixing, using methanol as the blank. The percentage of inhibition was calculated by the equation: [(Acontrol − Asample)/Acontrol] × 100 (2) where Acontrol is the absorbance of the control reaction containing all reagents except the tested sample, and Asample is the absorbance of the test compound. Tests were carried out in triplicate. Ascorbic acid was used as the positive control. The IC50 was calculated using linear relation between the compound concentration and probability of the percentage of ABTS inhibition.

[11] = Antioxidant activity by DPPH assay
Method: Diluted methanol solutions of the samples at different concentrations (1 mL each) were mixed with 1 mL of a freshly prepared (80 µg/mL) methanol solution of DPPH. The resulted solution was incubated at 37 °C for 30 min after what the absorbance of the solution was measured at 517 nm. Lower absorbance of the reaction mixture indicates higher free radical scavenging activity. Tests were carried out in triplicate. Decrease in absorption induced by the tested sample was compared to that of the positive control ascorbic acid. The capability to scavenge the DPPH^.radical was calculated using the following equation: Inhibition ratio (DPPH^. scavenging effect) (%) = [(Acontrol − Asample) / Acontrol] × 100 (1)
The IC50 was calculated using the linear relation between the compound concentration and the probability of the percentage of DPPH inhibition.

C[C@@H]1[C@H](O)[C@@H](C)/C=C/C=C/C=C/C=C/C=C/C=C/C=C/[C@H](O[C@@H]2O[C@H](C)[C@@H](O)[C@H](N)[C@@H]2O)C[C@@H]2O[C@](O)(C[C@@H](O)C[C@@H](O)[C@H](O)CC[C@@H](O)C[C@@H](O)CC(=O)O[C@H]1C)C[C@H](O)[C@H]2C(=O)O [Amphotericin B]
MFC [1]: 0.5 µg/mL (≈ 0.541 µM) | MFC [2]: 0.5 µg/mL (≈ 0.541 µM) | MFC [3]: 0.5 µg/mL (≈ 0.541 µM) | MFC [4]: 0.5 µg/mL (≈ 0.541 µM)

COc1cccc2c1C(=O)c1c(O)c3c(c(O)c1C2=O)C[C@@](O)(C(=O)CO)C[C@@H]3O[C@H]1C[C@H](N)[C@H](O)[C@H](C)O1 [Doxorubicin]
IC50 [5]: 0.1 µg/mL (≈ 0.184 µM)

CNC(C)C1CCC(N)C(OC2C(N)CC(N)C(OC3OCC(C)(O)C(NC)C3O)C2O)O1 (stereo not shown) [Gentamecin, gentamicin]
MBC [6]: 0.01 µg/mL (≈ 0.0209 µM) | MBC [7]: 0.5 µg/mL (≈ 1.05 µM) | MBC [8]: 0.15 µg/mL (≈ 0.314 µM) | MBC [9]: 0.01 µg/mL (≈ 0.0209 µM)

Cc1ccc(C(C)C)c(O)c1 [Thymol]
MIC [6]: 0.6 µg/mL (≈ 3.99 µM) | MIC [7]: 1 µg/mL (≈ 6.66 µM) | MIC [8]: 0.2 µg/mL (≈ 1.33 µM) | MIC [9]: 0.25 µg/mL (≈ 1.66 µM) | MIC [1]: 0.32 µg/mL (≈ 2.13 µM) | MIC [2]: 0.32 µg/mL (≈ 2.13 µM) | MIC [3]: 0.13 µg/mL (≈ 0.865 µM) | MIC [4]: 0.16 µg/mL (≈ 1.07 µM)

O=C1O[C@H]([C@@H](O)CO)C(O)=C1O [Vitamin C, L-ascorbic acid]
ABTS+ Assay IC50 [10]: 4.1 ± 0.1 µg/mL | DPPH Assay IC50 [11]: 4.4 ± 0.1 µg/mL
